According to the NIST ThermoML archive (doi:10.1016/j.jct.2015.01.004):
“And” between values parts separate entries of the source, which are not always exact repeats. Equal entries are not always repeated.

Assay: molar heat capacity at constant pressure; xn = mol fraction of the nth substance listed
Settings: 100 kPa

[Si] [silicon] + [Li]
Settings	molar heat capacity at constant pressure
127.62 K, Crystal of intercomponent compound 2, relaxation calorimeter, x2 = 0.804	12.78 J/K/mol
127.64 K, Crystal of intercomponent compound 2, relaxation calorimeter, x2 = 0.804	12.84 J/K/mol
130 K, Crystal of intercomponent compound 1, relaxation calorimetry + DSC, x2 = 0.81	12.64 J/K/mol
130 K, Crystal of intercomponent compound 2, relaxation calorimetry + DSC, x2 = 0.804	13.04 J/K/mol
131.69 K, Crystal of intercomponent compound 1, relaxation calorimetry, x2 = 0.81	12.88 J/K/mol
131.69 K, Crystal of intercomponent compound 2, relaxation calorimeter, x2 = 0.804	13.22 J/K/mol
131.71 K, Crystal of intercomponent compound 2, relaxation calorimeter, x2 = 0.804	13.3 J/K/mol
135.76 K, Crystal of intercomponent compound 1, relaxation calorimetry, x2 = 0.81	13.31 J/K/mol
135.76 K, Crystal of intercomponent compound 2, relaxation calorimeter, x2 = 0.804	13.64 J/K/mol
135.78 K, Crystal of intercomponent compound 2, relaxation calorimeter, x2 = 0.804	13.71 J/K/mol
139.83 K, Crystal of intercomponent compound 1, relaxation calorimetry, x2 = 0.81	13.71 J/K/mol
139.83 K, Crystal of intercomponent compound 2, relaxation calorimeter, x2 = 0.804	14.04 J/K/mol
139.85 K, Crystal of intercomponent compound 2, relaxation calorimeter, x2 = 0.804	14.09 J/K/mol
140 K, Crystal of intercomponent compound 1, relaxation calorimetry + DSC, x2 = 0.81	13.65 J/K/mol
140 K, Crystal of intercomponent compound 2, relaxation calorimetry + DSC, x2 = 0.804	14.07 J/K/mol
143.86 K, Crystal of intercomponent compound 1, relaxation calorimetry, x2 = 0.81	14.08 J/K/mol
143.87 K, Crystal of intercomponent compound 2, relaxation calorimeter, x2 = 0.804	14.45 J/K/mol
143.88 K, Crystal of intercomponent compound 2, relaxation calorimeter, x2 = 0.804	14.5 J/K/mol
147.97 K, Crystal of intercomponent compound 1, relaxation calorimetry, x2 = 0.81	14.51 J/K/mol
147.98 K, Crystal of intercomponent compound 2, relaxation calorimeter, x2 = 0.804	14.83 J/K/mol
147.99 K, Crystal of intercomponent compound 2, relaxation calorimeter, x2 = 0.804	14.94 J/K/mol
150 K, Crystal of intercomponent compound 1, relaxation calorimetry + DSC, x2 = 0.81	14.58 J/K/mol
150 K, Crystal of intercomponent compound 2, relaxation calorimetry + DSC, x2 = 0.804	15.01 J/K/mol
152 K, Crystal of intercomponent compound 1, relaxation calorimetry, x2 = 0.81	14.84 J/K/mol
152 K, Crystal of intercomponent compound 2, relaxation calorimeter, x2 = 0.804	15.17 J/K/mol
152.02 K, Crystal of intercomponent compound 2, relaxation calorimeter, x2 = 0.804	15.29 J/K/mol
156.1 K, Crystal of intercomponent compound 1, relaxation calorimetry, x2 = 0.81	15.17 J/K/mol
156.1 K, Crystal of intercomponent compound 2, relaxation calorimeter, x2 = 0.804	15.54 J/K/mol
156.12 K, Crystal of intercomponent compound 2, relaxation calorimeter, x2 = 0.804	15.62 J/K/mol
160 K, Crystal of intercomponent compound 1, relaxation calorimetry + DSC, x2 = 0.81	15.43 J/K/mol
160 K, Crystal of intercomponent compound 2, relaxation calorimetry + DSC, x2 = 0.804	15.88 J/K/mol
160.12 K, Crystal of intercomponent compound 1, relaxation calorimetry, x2 = 0.81	15.52 J/K/mol
160.13 K, Crystal of intercomponent compound 2, relaxation calorimeter, x2 = 0.804	15.86 J/K/mol
160.14 K, Crystal of intercomponent compound 2, relaxation calorimeter, x2 = 0.804	15.96 J/K/mol
164.23 K, Crystal of intercomponent compound 1, relaxation calorimetry, x2 = 0.81	15.85 J/K/mol
164.23 K, Crystal of intercomponent compound 2, relaxation calorimeter, x2 = 0.804	16.22 J/K/mol
164.24 K, Crystal of intercomponent compound 2, relaxation calorimeter, x2 = 0.804	16.27 J/K/mol
168.29 K, Crystal of intercomponent compound 1, relaxation calorimetry, x2 = 0.81	16.17 J/K/mol
168.29 K, Crystal of intercomponent compound 2, relaxation calorimeter, x2 = 0.804	16.53 J/K/mol
168.31 K, Crystal of intercomponent compound 2, relaxation calorimeter, x2 = 0.804	16.6 J/K/mol
170 K, Crystal of intercomponent compound 1, relaxation calorimetry + DSC, x2 = 0.81	16.22 J/K/mol
170 K, Crystal of intercomponent compound 2, relaxation calorimetry + DSC, x2 = 0.804	16.67 J/K/mol
172.36 K, Crystal of intercomponent compound 1, relaxation calorimetry, x2 = 0.81	16.41 J/K/mol
172.36 K, Crystal of intercomponent compound 2, relaxation calorimeter, x2 = 0.804	16.79 J/K/mol
172.38 K, Crystal of intercomponent compound 2, relaxation calorimeter, x2 = 0.804	16.9 J/K/mol
176.43 K, Crystal of intercomponent compound 1, relaxation calorimetry, x2 = 0.81	16.71 J/K/mol
176.43 K, Crystal of intercomponent compound 2, relaxation calorimeter, x2 = 0.804	17.06 J/K/mol and 17.19 J/K/mol
180 K, Crystal of intercomponent compound 1, relaxation calorimetry + DSC, x2 = 0.81	16.94 J/K/mol
180 K, Crystal of intercomponent compound 2, relaxation calorimetry + DSC, x2 = 0.804	17.39 J/K/mol
180.45 K, Crystal of intercomponent compound 1, relaxation calorimetry, x2 = 0.81	16.95 J/K/mol
180.45 K, Crystal of intercomponent compound 2, relaxation calorimeter, x2 = 0.804	17.33 J/K/mol
180.46 K, Crystal of intercomponent compound 2, relaxation calorimeter, x2 = 0.804	17.44 J/K/mol
184.56 K, Crystal of intercomponent compound 2, relaxation calorimeter, x2 = 0.804	17.58 J/K/mol
184.57 K, Crystal of intercomponent compound 1, relaxation calorimetry, x2 = 0.81	17.2 J/K/mol
184.57 K, Crystal of intercomponent compound 2, relaxation calorimeter, x2 = 0.804	17.69 J/K/mol
188.58 K, Crystal of intercomponent compound 2, relaxation calorimeter, x2 = 0.804	17.84 J/K/mol
188.59 K, Crystal of intercomponent compound 1, relaxation calorimetry, x2 = 0.81	17.45 J/K/mol
188.59 K, Crystal of intercomponent compound 2, relaxation calorimeter, x2 = 0.804	17.97 J/K/mol
190 K, Crystal of intercomponent compound 1, relaxation calorimetry + DSC, x2 = 0.81	17.6 J/K/mol
190 K, Crystal of intercomponent compound 2, relaxation calorimetry + DSC, x2 = 0.804	18.05 J/K/mol
192.69 K, Crystal of intercomponent compound 1, relaxation calorimetry, x2 = 0.81	17.73 J/K/mol
192.69 K, Crystal of intercomponent compound 2, relaxation calorimeter, x2 = 0.804	18.09 J/K/mol
192.71 K, Crystal of intercomponent compound 2, relaxation calorimeter, x2 = 0.804	18.27 J/K/mol
196.74 K, Crystal of intercomponent compound 2, relaxation calorimeter, x2 = 0.804	18.32 J/K/mol
196.78 K, Crystal of intercomponent compound 1, relaxation calorimetry, x2 = 0.81	17.96 J/K/mol
196.78 K, Crystal of intercomponent compound 2, relaxation calorimeter, x2 = 0.804	18.47 J/K/mol
200 K, Crystal of intercomponent compound 1, relaxation calorimetry + DSC, x2 = 0.81	18.2 J/K/mol
200 K, Crystal of intercomponent compound 2, relaxation calorimetry + DSC, x2 = 0.804	18.65 J/K/mol
200.77 K, Crystal of intercomponent compound 2, relaxation calorimeter, x2 = 0.804	18.54 J/K/mol
200.8 K, Crystal of intercomponent compound 1, relaxation calorimetry, x2 = 0.81	18.22 J/K/mol
200.8 K, Crystal of intercomponent compound 2, relaxation calorimeter, x2 = 0.804	18.74 J/K/mol
204.91 K, Crystal of intercomponent compound 2, relaxation calorimeter, x2 = 0.804	18.8 J/K/mol
204.92 K, Crystal of intercomponent compound 1, relaxation calorimetry, x2 = 0.81	18.43 J/K/mol
204.93 K, Crystal of intercomponent compound 2, relaxation calorimeter, x2 = 0.804	18.97 J/K/mol
208.92 K, Crystal of intercomponent compound 2, relaxation calorimeter, x2 = 0.804	19.05 J/K/mol
208.93 K, Crystal of intercomponent compound 1, relaxation calorimetry, x2 = 0.81	18.63 J/K/mol
208.94 K, Crystal of intercomponent compound 2, relaxation calorimeter, x2 = 0.804	19.19 J/K/mol
210 K, Crystal of intercomponent compound 1, relaxation calorimetry + DSC, x2 = 0.81	18.76 J/K/mol
210 K, Crystal of intercomponent compound 2, relaxation calorimetry + DSC, x2 = 0.804	19.19 J/K/mol
213.04 K, Crystal of intercomponent compound 2, relaxation calorimeter, x2 = 0.804	19.24 J/K/mol
213.05 K, Crystal of intercomponent compound 1, relaxation calorimetry, x2 = 0.81	18.87 J/K/mol
